Assay results: US20180305292A1, “DERIVATIVES OF NONSTEROIDAL ANTI-INFLAMMATORY DRUGS” (priority 2015, published 2018)

Assay: Metabolic stability in minipig intestinal fluid, quantification of released licofelone by HPLC/UV
Format: in vitro ADME, Gottingen SPF minipig
Details: incubation in diluted minipig intestinal fluid
Protocol: a) Preparation and Storage of Minipig Intestinal Fluid (IF)
Intestinal tissue/fluid and enterocyte samples were taken from a 10 month old, female Gottingen SPF minipig. The body weight was 21 kg. The minipig was fasted for approximately 28 hours before sampling of intestinal fluid/tissues and enterocytes. On the day of sampling, the minipig was weighed and anaesthetised. The animal was killed by exsanguination before sampling of intestinal fluid. An intestinal segment was ligated at both ends before removal. The isolated tissue was placed in isotonic saline and opened by a longitudinal cut for sampling of intestinal fluid.
The intestinal tissue from each segment was transferred into a Centrifuge Tube, immersed in 10 ml 50 mM phosphate buffer, pH 6.8 and frozen at −70° C.
b) Incubation Experiments with Minipig Intestinal Fluid (without FaSSIF) […]
c) Quantification of Licofelone by HPLC/UV
A set of six reference solutions (solvent: 1 vol IF and 4 vol 2% bovine serum albumin in FaSSIF pH 6.5) with licofelone concentrations between 38.0 and 0.19 μg/ml and the solvent without licofelone were analyzed in duplicate. The obtained concentration/peak area data pairs were subjected to linear regression analysis and the resulting calibration curve (r^2=0.9999) was used for quantification of licofelone in incubation experiments.

## COC(=O)/C=C/C(=O)OCCOCCOCCOCCOC(=O)Cc1c(-c2ccc(Cl)cc2)c(-c2ccccc2)c2n1CC(C)(C)C2 [Example 8, (E)-But-2-enedioic acid 2-{2-[2-(2-{2-[2-(4-chloro-phenyl)-6,6-dimethyl-1-phenyl-6,7-dihydro-5H-pyrrolizin-3-yl]-acetoxy}-ethoxy)-ethoxy]-ethoxy}-ethyl ester methyl ester]
  Cleavage of the ester bond, release of licofelone and monomethylfumarate: unexpected smooth cleavage of the ester bond
